What was measured:
[1] = test system: plasma lipid peroxidation; assay: Ex vivo peroxyl radical (AAPH)-induced lipid peroxidation of plasma from apoE−/−;LDLr−/− mice; format: in vivo; details: pooled plasma of bisphenol-treated mice, 5 mM AAPH, 37° C.
Description: Pooled plasma obtained from at least 3 mice receiving control diet (circles) or diet supplemented with bisphenol (squares) were treated with 5 mM AAPH and incubated at 37° C. At the times indicted aliquots were removed and analysed for α-TOH (A) and CE-O(O)H (B). 100% α-TOH levels correspond to 28±3 and 20±2 μM for control and H 212/43 plasma, respectively. Data represents the mean±SD (n=4 independent experiments).
Oxidation of plasma, pooled from=3 mice was carried out by addition of the peroxyl radical generator (final concentrations 5 mM) and incubating the reaction mixture at 37° C. under air. Aliquots (50 μL) of the reaction mixture were removed, extracted in methanol/hexane (1:5, v/v), and the consumption of antioxidants and accumulation of lipid oxidation products determined.
Analyses of oxidised and non-oxidised lipids were carried out by RP-HPLC as described in Example 1 except that in some instances UV234 nm rather than post-column chemiluminescence detection was used to measure C18:2-OOH and the corresponding hydroxides (together referred to as CE-O(O)H) which show similar retention times under these chromatographic conditions. α-TQ, α-TOH, α-tocotrienol, D-isosascorbate and ascorbate were determined by HPLC with electrochemical detection. […] All compounds were quantified by peak area comparison with authentic standards. […]

[2] = test system: tocopherol-mediated peroxidation (TMP); assay: Anti-TMP index; format: biochemical
α-tocopheroxyl radical = assay: Tocopheroxyl radical attenuating ability (TRAA); format: biochemical; details: kobs in presence (+) or absence (−) of test compound
[3] = test system: aortic lipoprotein lipid peroxidation; assay: Aqueous and lipophilic parameters of apoE−/−;LDLr−/− mouse aortae; format: in vivo, mice
Description: Pooled aortas from 7-8 mice obtained from control or bisphenol-treated mice were homogenized, the lipid extracted and subjected to HPLC with post-column chemiluminescence detection for analysis of cholesteryl ester hydroperoxides (CE-OOH). Chromatograms correspond to aortas of age-matched control (a or b) or drug-treated mice with low or high plasma levels of bisphenol (c and d, respectively). Under the conditions used, CE-OOH eluted between 8 and 9.5 min. The chemiluminescence negative peaks between 4 and 5.5 min correspond to the elution of tocopherols.
Male apoE−/−;LDLr−/− mice (59 total), were maintained on standard R3 chow from weaning to 8 weeks of age (young controls, n=9). […]
Analyses of oxidised and non-oxidised lipids were carried out by RP-HPLC as described in Example 1 except that in some instances UV234 nm rather than post-column chemiluminescence detection was used to measure C18:2-OOH and the corresponding hydroxides (together referred to as CE-O(O)H) which show similar retention times under these chromatographic conditions. α-TQ, α-TOH, α-tocotrienol, D-isosascorbate and ascorbate were determined by HPLC with electrochemical detection. For oxidation of plasma, unesterified cholesterol (which remained non-oxidised in these experiments) was employed as internal standard for all polyunsaturated, lipid-soluble components analysed. […]

[4] = test system: atherosclerosis in apoE−/−;LDLr−/− mice; assay: Atherosclerosis (intima volume, descending thoracic aorta) in apoE−/−;LDLr−/− mice; format: in vivo; details: bisphenol for 14 weeks, compared with age-matched controls
Description: Lesion formation was assessed by changes to intima volume when compared with young and age-matched controls receiving standard chow for 8 and 22 weeks, respectively. *Denotes a statistically significant difference with α<0.025 (Wilcoxon test).
Aortic lesions were assessed in segments centered around the third pair of intercostal artery branches in the descending thoracic aorta. Briefly, the fixed aortas were dehydrated in ethanol, cleared with xylene and embedded in paraffin. Serial sections (10 in total; each 2-3 μm thick and 100 μm apart) were cut and stained using Weigerts hematoxylin-van Gieson. Aortic thickening was assessed as the total volume of intima in the segment investigated in bisphenol-treated versus control samples.
Aortic volumes were determined by planimetry, using a Lucivid device (MicroBrightField, Colchester, Vermont, […]) attached to a Leitz DRM microscope that allowed the superposition of a computer monitor onto the cross sectional image.

CC(C)(C)c1cc(-c2cc(C(C)(C)C)c(O)c(C(C)(C)C)c2)cc(C(C)(C)C)c1O [Bisphenol]
CE-OOH detected after 12 h of oxidation [1]: < 1 µM | α-TOH after 12 h of oxidation [1]: remained unaltered | Anti-TMP index [2]: 3.2 | TRAA (decay of α-tocopheroxyl radical; kobs(+)/kobs(−)) (α-tocopheroxyl radical): Immediate decay | level of oxidised lipids in aortas, fold lower than control ([3]; drug-treated animals with high plasma levels of bisphenol): 1000 fold | level of oxidised lipids in aortas, fold lower than control ([3]; drug-treated animals with low plasma levels of bisphenol): 10 fold | lesion size (intimal volume, descending thoracic aorta) [4]: substantially decreased the lesion size

Source: patent US20030176511A1, “Compositions and methods for treating cardiovascular disorders” (priority 2000, published 2003)
